For data set [1] the following is noted: intrinsic aqueous solubility; Int. J. Pharmaceutics 2020, 589, 119812; cited from earlier work.
Data set [2] can be described thus: physchem. The settings on record: aqueous medium, thermodynamic from solid, room temperature.
Experimental: The thermodynamic aqueous solubility of CBD and CBG glycine conjugates in salt forms was determined using the equilibrium shake method outlined in the United States Pharmacopeia (USP) General Chapter <1236>Solubility Measurements (Table 1).
The mark [3] stands for this setting: Solubility (mg/mL) CBD/CBG equivalent, expressed as CBD/CBG equivalent.
The mark [4] stands for this setting: Solubility (mg/mL) Salt derivative, expressed as salt derivative.

The source of these data is patent US20250121067A1, “WATER-SOLUBLE CANNABINOID PRODRUGS COMPOSITIONS AND METHODS OF SYNTHESIZING THE SAME” (Trait Biosciences, Inc., priority 2022, published 2025).

SMILES strings stand for the structures.

Turning to `C=C(C)[C@@H]1CCC(C)=C[C@H]1c1c(O)cc(CCCCC)cc1O` [CBD, cannabidiol], the “solubility of CBD” value in data set [1] was 0.1 µg/mL.

In the case of `C=C(C)[C@@H]1CCC(C)=C[C@H]1c1c(O)cc(CCCCC)cc1OC(=O)NCC(=O)[O-].[Na+]` [Example 3, Sodium ((((1′R,2′R)-6-hydroxy-5′-methyl-4-pentyl-2′-(prop-1-en-2-yl)-1′,2′,3′,4′-tetrahydro-[1,1′-biphenyl]-2-yl)oxy)carbonyl)glycinate], the solubility (in general, how much of the substance goes into solution per volume) in data set [2] (setting [3]) was determined as 3140 µg/mL; in data set [2] (setting [4]), 4370 µg/mL.

As to `CCCCCc1cc(O)c(C/C=C(\C)CCC=C(C)C)c(OC(=O)NCC(=O)[O-])c1.[Na+]` [Example 10, Sodium (E)-((2-(3,7-dimethylocta-2,6-dien-1-yl)-3-hydroxy-5-pentylphenoxy)carbonyl)glycinate], the figures for the solubility in data set [2] (setting [3]) and in data set [2] (setting [4]) were 10000 µg/mL and 13300 µg/mL, respectively.
